Results: ChEMBL document CHEMBL4145553, “Design, synthesis, and biological evaluation of novel amide and hydrazide based thioether analogs targeting Histone deacteylase (HDAC) enzymes” (Eur J Med Chem, 2018)
Activity calls are given as the source filed them. No cut-off for these calls is given here.

Legend:
[1] = tested on: NCI-H226; assay: Growth inhibition of human NCI-H226 cells assessed as cell growth at 10^-8 M incubated for 48 hrs by sulforhodamine B assay relative to control; format: functional; conditions: NCI-H226, 48 h, read-out: Activity
[2] = tested on: OVCAR-5; assay: Growth inhibition of human OVCAR5 cells assessed as cell growth at 10^-6 M incubated for 48 hrs by sulforhodamine B assay relative to control; format: functional; conditions: OVCAR-5, 48 h, read-out: Activity
[3] = tested on: HL-60; assay: Downregulation of HDAC1 mRNA expression in human HL60 cells by qRT-PCR method; format: functional, cell-based
[4] = tested on: A549; assay: Growth inhibition of human A549/ATCC cells assessed as cell growth at 10^-6 M incubated for 48 hrs by sulforhodamine B assay relative to control; format: functional; conditions: A549, 48 h, read-out: Activity
[5] = tested on: MDA-MB-435; assay: Downregulation of HDAC2 mRNA expression in human MDA-MB-435 cells by qRT-PCR method relative to control; format: functional
[6] = tested on: MDA-MB-435; assay: Growth inhibition of human MDA-MB-435 cells assessed as cell growth at 10^-5 M incubated for 48 hrs by sulforhodamine B assay relative to control; format: functional; conditions: MDA-MB-435, 48 h, read-out: Activity
[7] = tested on: ACHN; assay: Growth inhibition of human ACHN cells assessed as cell growth at 10^-5 M incubated for 48 hrs by sulforhodamine B assay relative to control; format: functional; conditions: read-out: Activity
[8] = tested on: BT-549; assay: Growth inhibition of human BT549 cells incubated for 48 hrs by sulforhodamine B assay; format: functional; conditions: BT-549, 48 h
[9] = tested on: NCI-H226; assay: Growth inhibition of human NCI-H226 cells assessed as cell growth at 10^-6 M incubated for 48 hrs by sulforhodamine B assay relative to control; format: functional; conditions: NCI-H226, 48 h, read-out: Activity
[10] = tested on: MOLT-4; assay: Growth inhibition of human MOLT4 cells assessed as cell growth at 10^-5 M incubated for 48 hrs by sulforhodamine B assay relative to control; format: functional; conditions: MOLT-4, 48 h, read-out: Activity
[11] = tested on: MCF7; assay: Growth inhibition of human MCF7 cells assessed as cell growth at 10^-6 M incubated for 48 hrs by sulforhodamine B assay relative to control; format: functional; conditions: MCF7, 48 h, read-out: Activity
[12] = tested on: HOP-62; assay: Growth inhibition of human HOP62 cells assessed as cell growth at 10^-7 M incubated for 48 hrs by sulforhodamine B assay relative to control; format: functional; conditions: HOP-62, 48 h, read-out: Activity
[13] = tested on: A549; assay: Growth inhibition of human A549/ATCC cells assessed as cell growth at 10^-4 M incubated for 48 hrs by sulforhodamine B assay relative to control; format: functional; conditions: A549, 48 h, read-out: Activity
[14] = tested on: OVCAR-4; assay: Growth inhibition of human OVCAR4 cells assessed as cell growth at 10^-6 M incubated for 48 hrs by sulforhodamine B assay relative to control; format: functional; conditions: OVCAR-4, 48 h, read-out: Activity
[15] = tested on: UO-31; assay: Growth inhibition of human UO31 cells assessed as cell growth at 10^-6 M incubated for 48 hrs by sulforhodamine B assay relative to control; format: functional; conditions: UO-31, 48 h, read-out: Activity
[16] = tested on: K562; assay: Growth inhibition of human K562 cells incubated for 48 hrs by sulforhodamine B assay; format: functional; conditions: K562, 48 h
[17] = tested on: EKVX; assay: Growth inhibition of human EKVX cells assessed as cell growth at 10^-8 M incubated for 48 hrs by sulforhodamine B assay relative to control; format: functional; conditions: read-out: Activity
[18] = tested on: K562; assay: Growth inhibition of human K562 cells assessed as cell growth at 10^-6 M incubated for 48 hrs by sulforhodamine B assay relative to control; format: functional; conditions: K562, 48 h, read-out: Activity
[19] = tested on: RPMI-8226; assay: Growth inhibition of human RPMI8226 cells assessed as cell growth at 10^-4 M incubated for 48 hrs by sulforhodamine B assay relative to control; format: functional; conditions: RPMI-8226, 48 h, read-out: Activity
[20] = tested on: SF-268; assay: Growth inhibition of human SF268 cells incubated for 48 hrs by sulforhodamine B assay; format: functional; conditions: SF-268, 48 h
[21] = tested on: ACHN; assay: Growth inhibition of human ACHN cells incubated for 48 hrs by sulforhodamine B assay; format: functional
[22] = tested on: SN12C; assay: Growth inhibition of human SN12C cells assessed as cell growth at 10^-6 M incubated for 48 hrs by sulforhodamine B assay relative to control; format: functional; conditions: read-out: Activity
[23] = tested on: OVCAR-5; assay: Growth inhibition of human OVCAR5 cells assessed as cell growth at 10^-5 M incubated for 48 hrs by sulforhodamine B assay relative to control; format: functional; conditions: OVCAR-5, 48 h, read-out: Activity
[24] = tested on: OVCAR-4; assay: Growth inhibition of human OVCAR4 cells assessed as cell growth at 10^-5 M incubated for 48 hrs by sulforhodamine B assay relative to control; format: functional; conditions: OVCAR-4, 48 h, read-out: Activity
[25] = tested on: MDA-MB-435; assay: Downregulation of HDAC1 mRNA expression in human MDA-MB-435 cells by qRT-PCR method; format: functional, cell-based
[26] = tested on: SNB-19; assay: Growth inhibition of human SNB19 cells assessed as cell growth at 10^-6 M incubated for 48 hrs by sulforhodamine B assay relative to control; format: functional; conditions: SNB-19, 48 h, read-out: Activity
[27] = tested on: U-251; assay: Growth inhibition of human U251 cells incubated for 48 hrs by sulforhodamine B assay; format: functional; conditions: U-251, 48 h
[28] = tested on: HCT-116; assay: Growth inhibition of human HCT116 cells assessed as cell growth at 10^-5 M incubated for 48 hrs by sulforhodamine B assay relative to control; format: functional; conditions: HCT-116, 48 h, read-out: Activity
[29] = tested on: NCI-H322M; assay: Growth inhibition of human NCI-H322M cells assessed as cell growth at 10^-6 M incubated for 48 hrs by sulforhodamine B assay relative to control; format: functional; conditions: read-out: Activity
[30] = tested on: MDA-MB-468; assay: Growth inhibition of human MDA-MB-468 cells incubated for 48 hrs by sulforhodamine B assay; format: functional; conditions: MDA-MB-468, 48 h
[31] = tested on: NCI-H23; assay: Growth inhibition of human NCI-H23 cells assessed as cell growth at 10^-5 M incubated for 48 hrs by sulforhodamine B assay relative to control; format: functional; conditions: NCI-H23, 48 h, read-out: Activity
[32] = read-out: LC50 (the source's name)
[33] = read-out: pLC50 (the source's name) (converted)

Structure (SMILES): CCS/C(Nc1ccccc1)=C(\C#N)C(=O)N/N=C\c1ccc(Cl)cc1Cl
- growth at 0.01 µM [1]: 90%
- growth at 1 µM [2]: 101%
- Activity [3]: Active
- growth at 1 µM [4]: 92%
- fold change (FC) [5]: <=10
- growth at 10 µM [6]: -53%
- growth at 10 µM [7]: 43%
- GI50 ([8]; read-out: GI50): 2.8 µM
- CC50 [8, 32]: > 100 µM
- TGI ([8]; read-out: TGI): > 100 µM
- GI50 ([8]; read-out: pGI50 (converted)): 2.82 µM
- CC50 [8, 33]: > 100 µM
- TGI ([8]; read-out: pTGI): > 100 µM
- growth at 1 µM [9]: 85%
- growth at 10 µM [10]: 22%
- growth at 1 µM [11]: 83%
- growth at 0.1 µM [12]: 85%
- growth at 100 µM [13]: 18%
- growth at 1 µM [14]: 86%
- growth at 1 µM [15]: 86%
- GI50 ([16]; read-out: GI50): 0.855 µM
- CC50 [16, 32]: > 100 µM
- TGI ([16]; read-out: TGI): > 100 µM
- GI50 ([16]; read-out: pGI50 (converted)): 0.851 µM
- CC50 [16, 33]: > 100 µM
- TGI ([16]; read-out: pTGI): > 100 µM
- growth at 0.01 µM [17]: 98%
- growth at 1 µM [18]: 47%
- growth at 100 µM [19]: 6%
- GI50 ([20]; read-out: GI50): 6.58 µM
- CC50 [20, 32]: > 100 µM
- TGI ([20]; read-out: TGI): > 100 µM
- GI50 ([20]; read-out: pGI50 (converted)): 6.61 µM
- CC50 [20, 33]: > 100 µM
- TGI ([20]; read-out: pTGI): > 100 µM
- GI50 ([21]; read-out: GI50): 7.08 µM
- CC50 [21, 32]: > 100 µM
- TGI ([21]; read-out: TGI): > 100 µM
- GI50 ([21]; read-out: pGI50 (converted)): 7.08 µM
- CC50 [21, 33]: > 100 µM
- TGI ([21]; read-out: pTGI): > 100 µM
- growth at 1 µM [22]: 96%
- growth at 10 µM [23]: 45%
- growth at 10 µM [24]: 42%
- Activity [25]: Active
- growth at 1 µM [26]: 86%
- GI50 ([27]; read-out: GI50): 3.95 µM
- CC50 [27, 32]: > 100 µM
- TGI ([27]; read-out: TGI): > 100 µM
- GI50 ([27]; read-out: pGI50 (converted)): 3.98 µM
- CC50 [27, 33]: > 100 µM
- TGI ([27]; read-out: pTGI): > 100 µM
- growth at 10 µM [28]: 7%
- growth at 1 µM [29]: 89%
- GI50 ([30]; read-out: GI50): 2.6 µM
- CC50 [30, 32]: > 100 µM
- TGI ([30]; read-out: TGI): 9.19 µM
- GI50 ([30]; read-out: pGI50 (converted)): 2.63 µM
- CC50 [30, 33]: > 100 µM
- TGI ([30]; read-out: pTGI (converted)): 9.12 µM
- growth at 10 µM [31]: 41%
